29 compounds from patent publication US20060223996A1, “IL-12 modulatory compounds” (Synta Pharmaceuticals Corp., priority 2004, published 2006) can be followed below.

A value given as a limit tells only on which side of the number the result lay.

In the assay the test system is IL-12. Kind of assay: Human in vitro assay: inhibition of IL-12 production in IFNγ/LPS- or IFNγ/SAC-stimulated human PBMC or THP-1 cells (ELISA). Format: cell-based. The note with it: read-out: IC50 Range (representative in vitro IC50 data). The source says: The biological activities of a heterocyclic compound can be evaluated by a number of cell-based assays. One of such assays can be conducted using cells from human peripheral blood mononuclear cells (PBMC) or human monocytic cell line (THP-1). The cells are stimulated with a combination of human interferon-γ (IFNγ) and lipopolysaccharide or a combination of IFNγ and Staphylococcus aureus Cowan I in the presence of a test compound. The level of inhibition of IL-12 production can be measured by determining the amount of p70 by using a sandwich ELISA assay with anti-human IL-12 antibodies. IC50 of the test compound can then be determined. Specifically, PBMC or THP-1 cells are incubated with the test compound. Cell viability was assessed using the bioreduction of MTS [3-(4,5-dimethylthiazol-2-yl)-5-(3-carboxymethoxyphenyl)-2-(4-sulfophenyl)-2H-tetrazolium](Promega, Madison, Wis.).
Human In Vitro Assay. Human PBMC were isolated by centrifugation using Ficoll-Paque (Pharmacia Biotech, Uppsala, Sweden) and prepared in RPMI medium supplemented with 10% fetal calf serum (FCS), 100 U/mL penicillin, and 100 μg/mL streptomycin. PBMC were plated in wells of a 96-well plate at a concentration of 5×10^5 cells/well, and primed by adding IFNγ (30 U/mL) for 22 h and stimulated by adding LPS (1 μg/mL), or by adding IFNγ (100 U/mL) and then stimulated by adding SAC (0.01%). A test pyrimidine compound was dissolved in DMSO, and added to wells of the 96-well plate. The final DMSO concentration was adjusted to 0.25% in all cultures, including the compound-free control. Human THP-1 cells were plated in wells, primed by adding IFNγ (100 U/mL) for 22 h and stimulated by adding SAC (0.025%) in the presence of different concentrations of the pyrimidine compound. Cell-free supernatants were taken 18 h later for measurement of cytokines. Cell viability was assessed using the bioreduction of MTS. Cell survival was estimated by determining the ratio of the absorbance in compound-treated groups versus compound-free control.
The supernatant was assayed for the amount of IL-12p40, IL-12p70, or IL-10 by using a sandwich ELISA with anti-human antibodies, i.e., a Human IL-12 p40 ELISA kit from R&D Systems (Berkeley, Calif.), and a Human IL-12 p70 or IL-10 ELISA kit from Endogen (Cambridge, Mass.). Assays were based on the manufacturer's instructions.
The biological activities of pyrimidine compounds were tested on human PBMC or THP-1 cells.
`O=C(Oc1ccc2[nH]ccc2c1)c1cc(OCCc2ccccn2)nc(N2CCOCC2)n1` [Compound 72, 2-Morpholin-4-yl-6-(2-pyridin-2-yl-ethoxy)-pyrimidine-4-carboxylic acid 1H-indol-5-yl ester]: the IC50 is at least 1000 nM.

In the case of `O=C(Nc1ccc2[nH]c3c(c2c1)CCCC3)c1cc(N2CCC(O)CC2)nc(N2CCOCC2)n1` [Compound 184, 6-(4-Hydroxy-piperidin-1-yl)-2-morpholin-4-yl-pyrimidine-4-carboxylic acid (6,7,8,9-tetrahydro-5H-carbazol-3-yl)-amide], the IC50 was under 1000 nM.

Consider `CN(C)c1cccc(NC(=O)c2cc(OCCN3CCOCC3)cc(N3CCOCC3)n2)c1` [Compound 155, 6-Morpholin-4-yl-4-(2-morpholin-4-yl-ethoxy)-pyridine-2-carboxylic acid (3-dimethylamino-phenyl)-amide], for which the IC50 is under 1000 nM.

As for `O=C(Nc1ccc2ncccc2c1)c1cc(OCCc2ccccn2)nc(N2CCOCC2)n1` [Compound 38, 2-Morpholin-4-yl-6-(2-pyridin-2-yl-ethoxy)-pyrimidine-4-carboxylic acid quinolin-6-ylamide], the IC50 was at least 1000 nM.

In the case of `Cn1ncc2ccc(NC(=O)c3cc(OCCN4CCOCC4)nc(N4CCOCC4)n3)cc21` [Compound 216, N-(1-methyl-1H-indazol-6-yl)-2-morpholino-6-(2-morpholinoethoxy)pyrimidine-4-carboxamide], the IC50 was at least 1000 nM.

For `Cc1[nH]c2ccc(NC(=O)c3cc(NCC(=O)N4CCCCC4)nc(N4CCOCC4)n3)cc2c1C` [Compound 109, 2-Morpholin-4-yl-6-(2-oxo-2-piperidin-1-yl-ethylamino)-pyrimidine-4-carboxylic acid (2,3-dimethyl-1H-indol-5-yl)-amide], the IC50 was under 1000 nM.

`Cc1cccc(NC(=O)Nc2cc(OCCc3ccccn3)nc(N3CCOCC3)n2)c1` [Compound 67, 1-[2-Morpholin-4-yl-6-(2-pyridin-2-yl-ethoxy)-pyrimidin-4-yl]-3-m-tolyl-urea]: the IC50 is under 1000 nM.

Take `O=C(Nc1ccc(C(F)(F)F)cc1)c1cc(NCCN2CCOCC2)nc(N2CCOCC2)n1` [Compound 191, 2-morpholino-6-(2-morpholinoethylamino)-N-(4-(trifluoromethyl)phenyl)pyrimidine-4-carboxamide]: the IC50 was at least 1000 nM.

In the case of `O=C1Cc2cc(NC(=O)c3cc(OCCN4CCOCC4)nc(N4CCOCC4)n3)ccc2N1` [Compound 197, 2-morpholino-6-(2-morpholinoethoxy)-N-(2-oxoindolin-5-yl)pyrimidine-4-carboxamide], the IC50 is at least 1000 nM.

With `COCCN(C)c1cc(C(=O)Nc2ccc(N3CCOCC3)c(C(N)=O)c2)nc(N2CCOCC2)n1` [Compound 234, 6-[(2-Methoxy-ethyl)-methyl-amino]-2-morpholin-4-yl-pyrimidine-4-carboxylic acid (3-carbamoyl-4-morpholin-4-yl-phenyl)-amide], the half-maximal inhibitory concentration (IC50) is at least 1000 nM.

Consider `O=C(Nc1ccc2[nH]c(C(F)(F)F)nc2c1)c1cc(NCCN2CCOCC2)nc(N2CCOCC2)n1` [Compound 190, 2-morpholino-6-(2-morpholinoethylamino)-N-(2-(trifluoromethyl)-1H-benzo[d]imidazol-5-yl)pyrimidine-4-carboxamide], for which the IC50 is at least 1000 nM.

Take `O=C(Nc1ccc2c(c1)CCC2)c1cc(OCCN2CCOCC2)nc(N2CCOCC2)n1` [Compound 40, 2-Morpholin-4-yl-6-(2-morpholin-4-yl-ethoxy)-pyrimidine-4-carboxylic acid indan-5-ylamide]: the IC50 is at least 1000 nM.

On to `COCCN(C)c1cc(C(=O)Nc2cccc(N(C)C)c2)nc(N2CCOCC2)c1` [Compound 159, 4-[(2-Methoxy-ethyl)-methyl-amino]-6-morpholin-4-yl-pyridine-2-carboxylic acid (3-dimethylamino-phenyl)-amide], for which the IC50 was under 1000 nM.

Regarding `Cc1cccc(NNC(=O)c2cc(N3CCOCC3)nc(OCCc3ccccn3)n2)c1` [Compound 78, 6-Morpholin-4-yl-2-(2-pyridin-2-yl-ethoxy)-pyrimidine-4-carboxylic acid N′-m-tolyl-hydrazide], the IC50 is under 1000 nM.

`O=C(Nc1cccc(O)c1)C(=O)Nc1cc(OCCc2ccccn2)nc(N2CCOCC2)n1` [Compound 86, N-(3-Hydroxy-phenyl)-N′-[2-morpholin-4-yl-6-(2-pyridin-2-yl-ethoxy)-pyrimidin-4-yl]-oxalamide]: the IC50 was at least 1000 nM.

Turning to `O=C(Nc1ccnc(Cl)c1)c1cc(OCCN2CCOCC2)nc(N2CCOCC2)n1` [Compound 149, 2-Morpholin-4-yl-6-(2-morpholin-4-yl-ethoxy)-pyrimidine-4-carboxylic acid (2-chloro-pyridin-4-yl)-amide], the IC50 was at least 1000 nM.

As to `Cc1cccc(NC(=O)C(=O)Nc2cc(OCCc3ccccn3)nc(N3CCOCC3)n2)c1` [Compound 85, N-[2-Morpholin-4-yl-6-(2-pyridin-2-yl-ethoxy)-pyrimidin-4-yl]-N′-m-tolyl-oxalamide], the IC50 was at least 1000 nM.

Take `CN(CCO)c1cc(C(=O)Nc2cccc(N3CCCC3)c2)nc(N2CCOCC2)n1` [Compound 310, 6-[(2-Hydroxy-ethyl)-methyl-amino]-2-morpholin-4-yl-pyrimidine-4-carboxylic acid (3-pyrrolidin-1-yl-phenyl)-amide]: the IC50 is under 1000 nM.

In the case of `COCCN(C)c1cc(C(=O)Nc2cc(C(C)(C)C)on2)nc(N2CCOCC2)n1` [Compound 228, 6-[(2-Methoxy-ethyl)-methyl-amino]-2-morpholin-4-yl-pyrimidine-4-carboxylic acid (5-tert-butyl-isoxazol-3-yl)-amide], the IC50 was at least 1000 nM.

On to `CCc1cccc(NC(=O)c2cc(OCCN3CCOCC3)nc(N3CCOCC3)n2)c1` [Compound 46, 2-Morpholin-4-yl-6-(2-morpholin-4-yl-ethoxy)-pyrimidine-4-carboxylic acid (3-ethyl-phenyl)-amide], for which the IC50 was at least 1000 nM.

On to `CN1CCc2ccc(NC(=O)c3cc(OCCN4CCOCC4)nc(N4CCOCC4)n3)cc21` [Compound 214, N-(1-methylindolin-6-yl)-2-morpholino-6-(2-morpholinoethoxy)pyrimidine-4-carboxamide], for which the IC50 is under 1000 nM.

As to `Cc1cc(NC(=O)Nc2ccc3[nH]c(C)c(C)c3c2)nc(N2CCOCC2)n1` [Compound 263, 1-(2,3-dimethyl-1H-indol-5-yl)-3-(6-methyl-2-morpholinopyrimidin-4-yl)urea], the IC50 was under 1000 nM.

Regarding `CCN1CCc2ccc(NC(=O)c3cc(OCCN4CCOCC4)nc(N4CCOCC4)n3)cc21` [Compound 221, N-(1-ethylindolin-6-yl)-2-morpholino-6-(2-morpholinoethoxy)pyrimidine-4-carboxamide], the IC50 is under 1000 nM.

For `Cc1[nH]c2ccc(NC(=O)c3cc(N4CCOCC4)nc(N4C[C@@H](C)O[C@@H](C)C4)n3)cc2c1C` [Compound 281, 2-(2,6-Dimethyl-morpholin-4-yl)-6-morpholin-4-yl-pyrimidine-4-carboxylic acid (2,3-dimethyl-1H-indol-5-yl)-amide], the IC50 is under 1000 nM.

Turning to `CCc1c[nH]c2ccc(NC(=O)c3cc(N4CCN(C(C)=O)CC4)cc(N4CCOCC4)n3)cc12` [Compound 181, 4-(4-Acetyl-piperazin-1-yl)-6-morpholin-4-yl-pyridine-2-carboxylic acid (3-ethyl-1H-indol-5-yl)-amide], the IC50 is under 1000 nM.

`CCc1c[nH]c2ccc(NC(=O)c3cc(N4CCC5(CC4)OCCO5)nc(N4CCOCC4)n3)cc12` [Compound 175, 6-(1,4-Dioxa-8-aza-spiro[4.5]dec-8-yl)-2-morpholin-4-yl-pyrimidine-4-carboxylic acid (3-ethyl-1H-indol-5-yl)-amide]: the IC50 is under 1000 nM.

`COc1ccc(CCOc2cc(C(=O)Nc3cccc(C)c3)cc(N3CCOCC3)n2)cc1OC` [Compound 65, 2-[2-(3,4-Dimethoxy-phenyl)-ethoxy]-6-morpholin-4-yl-N-m-tolyl-isonicotinamide]: the IC50 was at least 1000 nM.

`Cc1ccc(-c2csc(NC(=O)Nc3cc(OCCN4CCOCC4)nc(N4CCOCC4)n3)n2)cc1` [Compound 142, 1-[2-Morpholin-4-yl-6-(2-morpholin-4-yl-ethoxy)-pyrimidin-4-yl]-3-(4-p-tolyl-thiazol-2-yl)-urea]: the IC50 was at least 1000 nM.

For the compound `Cc1[nH]c2ccc(NC(=O)c3cccc(N4CCOCC4)n3)cc2c1C` [Compound 168, 6-Morpholin-4-yl-pyridine-2-carboxylic acid (2,3-dimethyl-1H-indol-5-yl)-amide], the IC50 was under 1000 nM.

As usually defined, the IC50 is the concentration needed to halve the response being measured.
